Reference: patent US9045415B2, “Targeting of EWS-FLI1 as anti-tumor therapy” (Georgetown University, priority 2006, dated 2015)
Like-named read-outs stand apart in the source and are kept apart here. Blank lines part the entries; values can stand above or below the molecule they belong to. No end group written: not given here. *: point of attachment. FITC = O=C1OC2(c3ccc(O)cc3Oc3cc(O)ccc32)c2ccc(NC(=S)*)cc21

Key:
[1] = system: TC32 cells; assay: Monolayer cell growth (MTT or WST), TC32; assay type: cell-based; settings: TC32 monolayer, 10 μM
Description: (§1) In FIG. 13A, recombinant EWS-FLI1 was treated with NSC635437 for 30 minutes. GST-RHA (630-1020) was added and the complexes were then precipitated with antibody to EWS-FLI1 and Protein G beads. Resolved complexes showing the immunoprecipitated complex control without compound are in lanes 3 (0.1% DMSO) and 5 (0.01% DMSO). […] ESFT TC32 (◯) and neuroblastoma SK-N-AS (▪) were grown for 72 hours in the continuous presence of NSC635437. Cells were incubated in MTT reagent for 4 hours and the dried precipitate was dissolved isopropanol and the absorbance read at 570 nm. Each cell line was standardized to the growth of the DMSO control.
(§2) FIG. 30 provides data to show E9R peptide prevents EWS-FLI1 binding to RHA with specific detrimental effects upon ESFT growth and transformation. […] Scale bar equals 20 μm. […] Only expression of EGFP-E9R in TC71 reduced anchorage independent growth. […] Scale bar equals 20 μm.
FIG. 33 provides data showing YK-4-279 is potent and specific inhibitor of ESFT. […] Cell number was measured by MTT or WST reduction after seven days in culture. […] FIG. 33D cell lines expressing EWS-FLI1 compared to non-EWS-FLI1 malignant cell lines following 3 days in culture to establish the IC50 using WST assay. […] Graph plots level of fluorescence in treated divided by untreated lysate. […] Scale bar equals 200 μm.

[2] = system: neuroblastoma SKNAS cells; assay: Monolayer cell growth, neuroblastoma; assay type: cell-based; settings: SKNAS monolayer
Text: FIGS. 8A-E show E9RP inhibits ESFT cell growth. In FIGS. 8A and 8B, E9RP is the peptide region of RHA (SEQ ID NO:29) fused to the Penetratin peptide (from the Antennapedia homeodomain; SEQ ID NO:34) and contains amino-terminal fluorescein (FITC). […] Neither lipids nor electricity were used for transduction of peptides into cells. Confocal microscopy identified peptide throughout cells with nuclear uptake. Nuclear uptake was confirmed by DAPI staining. […] Cell lines were placed in 96-well plates with either vehicle alone (●), or E9RP (10 μM) on days 0, 3 and 5 (▴). No lipid or other transfection method was utilized. This represents two experiments with similar results. FIG. 8D depicts dose response of ESFT 1 to either wild-type or single amino-acid mutant peptides. (▪) wild-type E9RP, (E9R (SEQ ID NO:29) fused to the Penetratin peptide (SEQ ID NO:34)), (▾)(E9RP (P2A peptide (SEQ ID NO:30) fused to the Penetratin peptide (SEQ ID NO:34)), (▴)E9RP (D5A peptide (SEQ ID NO:31) fused to the Penetratin peptide (SEQ ID NO:34)). Growth normalized to treating cells with the 16 aa Antp sequence alone (SEQ ID NO:34). FIG. 8E is a comparison of wild-type versus mutant peptides in ESFT and NB cells.
as §1, §2

[3] = biological target: T1, recombinant EWS-FLI1 (Homo sapiens, UniProt Q01543+Q01844); assay: Surface plasmon resonance (Biacore) binding to EWS-FLI1; settings: read-out: KD
T1 sequence (Q01543 1-452): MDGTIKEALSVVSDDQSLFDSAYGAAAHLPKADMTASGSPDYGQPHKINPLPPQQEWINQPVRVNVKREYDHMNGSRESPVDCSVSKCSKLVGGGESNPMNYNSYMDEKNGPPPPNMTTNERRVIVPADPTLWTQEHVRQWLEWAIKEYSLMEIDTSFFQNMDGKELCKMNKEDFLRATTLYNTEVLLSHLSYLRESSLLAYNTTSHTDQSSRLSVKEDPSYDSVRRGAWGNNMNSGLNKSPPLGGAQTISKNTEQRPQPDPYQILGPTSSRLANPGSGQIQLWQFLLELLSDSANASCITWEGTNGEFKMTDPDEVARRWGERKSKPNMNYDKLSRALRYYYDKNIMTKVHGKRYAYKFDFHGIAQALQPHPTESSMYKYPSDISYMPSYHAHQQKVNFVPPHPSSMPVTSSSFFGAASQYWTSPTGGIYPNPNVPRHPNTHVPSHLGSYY
T1 sequence (Q01844 1-656): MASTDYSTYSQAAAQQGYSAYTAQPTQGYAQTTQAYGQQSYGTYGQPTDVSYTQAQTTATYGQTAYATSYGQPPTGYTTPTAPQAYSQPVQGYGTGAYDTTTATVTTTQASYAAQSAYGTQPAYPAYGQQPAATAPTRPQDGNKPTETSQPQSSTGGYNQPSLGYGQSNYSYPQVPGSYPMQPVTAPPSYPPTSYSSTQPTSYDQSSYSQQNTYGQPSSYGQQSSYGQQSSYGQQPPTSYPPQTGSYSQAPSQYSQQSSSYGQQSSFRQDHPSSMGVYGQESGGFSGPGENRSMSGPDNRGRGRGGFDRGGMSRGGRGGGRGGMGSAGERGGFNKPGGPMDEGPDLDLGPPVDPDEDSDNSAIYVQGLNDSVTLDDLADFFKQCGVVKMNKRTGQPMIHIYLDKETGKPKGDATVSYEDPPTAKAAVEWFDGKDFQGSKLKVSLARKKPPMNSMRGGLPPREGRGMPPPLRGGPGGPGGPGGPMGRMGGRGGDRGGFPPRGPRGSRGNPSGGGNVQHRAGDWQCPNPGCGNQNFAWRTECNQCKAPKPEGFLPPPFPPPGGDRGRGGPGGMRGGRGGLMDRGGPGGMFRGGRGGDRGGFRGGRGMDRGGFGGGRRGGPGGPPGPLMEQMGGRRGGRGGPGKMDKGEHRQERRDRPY
Description: Antp is conjugated to the amino terminal of all peptides used in these studies. Recombinant EWS-FLI1 (MW 55 kDa) was covalently linked to a CM5 chip at a density of 1200 RU, and E9RP (MW 4 kDa) was evaluated for binding. The E9RP analyte concentrations ranged from 0.03-30 μM, and all are shown in duplicate. E9RP bound to EWS-FLI1 with a KD of 4.0 μM.
An assay that will identify whether a peptide can disrupt RHA from interacting with EWS-FLI1 was developed. The Biacore device is a biosensor that utilizes surface plasmon resonance (SPR) to measure the strength of molecular interactions. SPR is the sensitive measurement of […] light based upon alterations of surface characteristics that change with molecules binding to a surface. The Biacore device combines SPR with a microfluidic system.
The KD of E9RP binding to EWS-FLI1 was calculated to be 4.0 μM (FIG. 4).
A surface plasmon resonance assay using the Biacore T100 was established with EWS-FLI1, prepared in our laboratory as previously published (Uren, A., Tcherkasskaya, O. & Toretsky, J. A. Recombinant EWS-FLI1 oncoprotein activates transcription. Biochemistry 43, 13579-13589 (2004)). DNA oligonucleotides were used to quality control the proper conformation of EWS-FLI1 on the surface of a CM5 chip. Small molecules obtained from the Developmental Therapeutics Program of the National Cancer Institute, NIH (http://dtp.nci.nih.gov/branches/dscb/repo_open.html) were prioritized based upon their molecular weight and solubility. An initial screening of molecules was performed at 1 or 10 μM compound, based on solubility. We used a model that compares the actual binding maximum (actual RU) with the theoretical binding maximum (RUtheor). […] Hits (RUactual to RUtheor of 0.7-2.0) were then reviewed by a team of medicinal chemists and those with structural potentials were selected for further study. Selected molecules were tested in vitro in a solution coimmunoprecipitation assay using recombinant EWS-FLI1 and GST-RHA (647-1075).

[4] = system: ESFT cells TC71; assay: Xenografts of TC71 cells transfected with E9R expression plasmids; assay type: in vivo, mice; settings: mutated control peptide vs wild-type
Description: ESFT cells TC71 were transfected with pGE9R (wild-type sequence peptide (SEQ ID NO: 29)) or pGE9R-D5A (control, mutated peptide; D5A (SEQ ID NO: 31)). In FIG. 10A, fluorescent micrographs of transfected cells after 4 days in culture are presented. […] Bar equals 300 microns. In FIG. 10B, each group contains six mice. Mice legs were measured every 2-3 days. Tumors appeared in 2 weeks. The experiment was terminated after 26 days when the largest tumor caused the mouse to limp. Tumor volumes were calculated according to (D×d2/6)×π formula, where large diameter of tumor mass is D and small diameter is d. 2-way ANOVA analysis, followed by Bonferroni correction for multiple variables, the difference in the two growth curves was highly significant, p=0.016.
The ability of the E9R peptide sequence to prevent ESFT tumorigenesis in a pilot murine xenograft experiment was determined. As a control peptide, the same mutation that prevented wild-type RHA from binding to EWS-FLI1 (D827A, noted in the 10-mer peptide as E9R-D5A) was created. ESFT cells were transfected with either pGE9R or pGE9R-D5A by electroporation. A transfection efficiency of greater than 80% using fluorescent microscopy (FIG. 10A) was observed. […] Every two to three days, each animal's thigh was measured in three dimensions, and tumor volumes were calculated. […]

Molecule: [FITC]-RQIKIWFQNRRMKWKKPPPLAAVIEA ({FITC}-RQIKIWFQNRRMKWKKPPPLAAVIEA) [E9R(D5A), Antennapedia-E9R-D5A, mutated control peptide, reference compound]
ESFT cell growth with fluorescein conjugated peptides [1]: neither the D5A mutated control nor antennapedia peptides alone reduced ESFT cell growth | growth of neuroblastoma cells with fluorescein conjugated peptides [2]: slight increase

Molecule: PPPLAAVIEA [E9R-D5A, control, mutated peptide D5A, expressed from pGE9R-D5A, reference compound]
tumor take-rate and rate of growth [4]: greater

Molecule: O=C(CC1(O)C(=O)N(Cc2ccccc2)c2c(Cl)ccc(Cl)c21)c1ccc(Cl)cc1 (centres unmarked) [YK-4-276, 1-Benzyl-4,7-dichloro-3-[2-(4-chlorophenyl-2-oxoethyl)]-3-hydroxyl-1,3-dihydroindol-2-one]
Kd ([3]; FIG. 24 experiment): 10.2 µM | melting point: 154 to 156 °C

Other lines, results leading:

melting point: 189 to 192 °C
Molecule: Cc1ccc(C(=O)CC2(O)C(=O)Nc3c(Cl)ccc(Cl)c32)cc1 (centres unmarked) [YK-4-280, 4,7-Dichloro-3-hydroxyl-3-(2-oxo-2-p-tolylethyl)-1,3-dihydroindol-2-one]

melting point: 240 to 243 °C
Molecule: Nc1ccc(C(=O)CC2(O)C(=O)Nc3c(Cl)ccc(Cl)c32)cc1 (centres unmarked) [YK-4-284, 3-[2-(4-Aminophenyl-2-oxoethyl)]-4,7-dichloro-3-hydroxyl 1,3-dihydroindol-2-one]

melting point: 198 to 200 °C
Molecule: O=C(CC1(O)C(=O)Nc2c(Cl)ccc(Cl)c21)c1ccccc1 (centres unmarked) [YK-4-285, 4,7-Dichloro-3-hydroxyl-3-(2-oxo2-phenylethyl)-1,3-dihydroindol-2-one]

Kd ([3]; FIG. 23 experiment): 6.82 µM | Kd ([3]; FIG. 24 experiment): 9.3 µM | melting point: 240 to 242 °C
Molecule: O=C(CC1(O)C(=O)Nc2c(Cl)ccc(Cl)c21)c1ccc(O)cc1 (centres unmarked) [YK-4-289, 4,7-Dichloro-3-hydroxyl-3-[2-(4-hydroxyphenyl-2-oxoethyl)]-1,3-dihydroindol-2-one]
